Data on 2 compounds can be found in patent US6486151B2, “N-oxides of heterocyclic esters, amides, thioesters, and ketones” (GPI NIL Holdings Inc., priority 1997, dated 2002).

One series concerns the target FKBP12 (Homo sapiens, UniProt P62942). As to the kind of experiment: Ki test procedure: inhibition of peptidyl-prolyl isomerase (rotamase) activity, chymotrypsin-coupled assay. In kind it is biochemical. The conditions noted are these: FKBP, substrate N-succinyl-Ala-Ala-Pro-Phe-p-nitroanilide; read-out: Ki (apparent Ki, rotamase inhibition). An excerpt:
As discussed above, the compounds of the present invention have an affinity for the FK506 binding protein, particularly FKBP12. The inhibition of the prolyl peptidyl cis-trans isomerase activity of FKBP may be measured as an indicator of this affinity.
Inhibition of the peptidyl-prolyl isomerase (rotamase) activity of the inventive compounds can be evaluated by known methods described in the literature (Harding, et al., Nature, 1989, 341 :758-760; Holt et al. J. Am. Chem. Soc., 115:9923-91938). The cis-trans isomerization of an alanine-proline bond in a model substrate, N-succinyl-Ala-Ala-Pro-Phe-p-nitroanilide, is monitored spectrophotometrically in a chymotrypsin-coupled assay, which releases para-nitroanilide from the trans form of the substrate. The inhibition of this reaction caused by the addition of different concentrations of inhibitor is determined, and the data is analyzed as a change in first-order rate constant as a function of inhibitor concentration to yield the apparent Ki values. […]
The absorbance at 390 nm versus time is monitored for 90 seconds using a spectrophotometer and the rate constants are determined from the absorbance versus time data files. […]

Series [1] is described as follows: Liver microsomal assay (model of first pass metabolism). Type of series: in vitro ADME, mouse. As for the experimental part: (§1) In studies to directly asses the rate of metabolism of N-oxides, a mouse liver microsomal assay was used as described below to model first pass metabolism.
Liver microsomes from various species were purchased from a commercial supplier. The microsomes are characterized prior to shipment. The reaction mixture contained microsomes, 5 μM MgCl2, 1 mM NADP, 4 mM glucose-6-phosphate (G-6-P), and 1 unit/4 mL glucose-6-phosphate dehydrogenase (G-6-P DH). The final microsomal protein concentration for all studies was 0.2 mg/mL. Incubations were carried out for 1 hour in a shaking water bath (37° C.). The reaction was terminated by removing an aliquot from the reaction mixture and placing it in a tube with an equal volume of acetonitrile and the bioanalytical internal standard. The results of these experiments are presented as compound half-lives (t1/2) in Table II.

The test system of the next series is rabbit liver esterase. As to the kind of experiment: Esterase activity: degradation by purified rabbit liver esterase. Type of series: in vitro ADME. The conditions noted are these: for de-esterification by purified esterase (in words): purified esterification enzyme in vitro; for esterase degradation (rate of enzymatic degradation): purified rabbit liver esterase, 0.05 M Tris buffer pH 7.5, 2 hours. As for the experimental part:
as §1
Purified rabbit liver esterase was purchased from Sigma. Five (5) units of enzyme were placed in 2 mL of 0.05 M Tris buffer (pH 7.5). Incubations were performed for 2 hours. The reaction was terminated by removing an aliquot from the reaction mixture and placing it in a tube with an equal volume of acetonitrile and the bioanalytical internal standard. The results of these experiments are presented in Table II as rates of enzymatic degradation of the compounds.

Series [2] deals with MPTP lesioning of dopaminergic neurons in mice. As to the kind of experiment: MPTP model of Parkinson's Disease: striatal TH innervation density. The conditions noted are these: MPTP 30 mg/kg i.p. 5 days, test compound 4 mg/kg s.c., FIG. 1. Type of series: in vivo. As for the experimental part: FIG. 1 is a bar graph showing Protection of Striatal TH Innervation Density from MPTP-toxicity by Concurrent Drug Dosing.
MPTP lesioning of dopaminergic neurons in mice is used as an animal model of Parkinson's Disease. Four week old male CD1 white mice are dosed i.p. with 30 mg/kg of MPTP for 5 days. Test compounds (4 mg/kg), or vehicle, are administered s.c. along with the MPTP for 5 days, as well as for an additional five days following cessation of MPTP treatment. At 18 days following MPTP treatment, the animals are sacrificed and the striata dissected and perfusion-fixed. Immunostaining is performed on sagittal and coronal brain sections using anti-tyrosine hydroxylase […] to quantitative survival and recovery of dopaminergic neurons. In animals treated MPTP and vehicle, a substantial loss of functional dopaminergic terminals is observed as compared to non-lesioned animals. Lesioned animals receiving test compounds show a significant recovery of TH-stained dopaminergic neurons. This model presents quantitation for the recovery of TH-positive dopaminergic neurons in the striatum of animals receiving of animals receiving the compounds of the present invention. Data for representative control and lesioned animals not receiving the test drugs is also presented against the data from the animals receiving the compounds of the present invention. […]

Series [3] deals with chick dorsal root ganglia. As to the kind of experiment: Chick dorsal root ganglion cultures and neurite growth. The conditions noted are these: Gallus gallus; chick embryo DRG explants, 48 hours after drug treatment; read-out: ED50 (neurite outgrowth). Type of series: cell-based. As for the experimental part: Dorsal root ganglia were dissected from chick embryos of ten day gestation. Whole ganglion explants were cultured on thin layer Matrigel-coated 12 well plates with Liebovitz L15 plus high glucose media supplemented with 2 mM glutamine and 10% fetal calf serum, and also containing 10 μM cytosine β-D arabinofuranoside (Ara C) at 37° C. in an environment containing 5% CO2. Twenty-four hours later, […] Forty-eight hours after drug treatment, the ganglia were visualized under phase contrast or Hoffman Modulation contrast with a Zeiss Axiovert inverted microscope. Photomicrographs of the explants were made, and neurite outgrowth was quantified. Neurites longer than the DRG diameter were counted as positive, with total number of neurites quantitated per each experimental condition. Three to four DRGs are cultured per well, and each treatment was performed in duplicate.

FKBP12, sequence (P62942 whole entry): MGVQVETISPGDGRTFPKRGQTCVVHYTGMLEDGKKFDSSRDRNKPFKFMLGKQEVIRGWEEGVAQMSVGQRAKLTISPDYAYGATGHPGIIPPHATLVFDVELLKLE

As for `CCC(C)(C)C(=O)C(=O)N1CCC[C@H]1C(=O)OCCCc1ccc[n+]([O-])c1` [Example 1, 3-(3-Pyridyl)-1-propyl (2S)-1-(3,3-Dimethyl-1,2-dioxopentyl) -2-pyrrolidinecarboxylate, N-oxide], at FKBP12, the Ki amounted to 225 nM. The “half-life compared with parent compound (in words)” value in series [1] (mouse liver microsomal assay) is given as “significantly longer half-life than the parent compound”. Also, the “t1/2 (compound half-life in microsomal assay)” value in series [1] (mouse liver microsomes, 0.2 mg/mL protein, 37° C., 1 hour incubation) stood at 42.8 min. Further, in the series on rabbit liver esterase, the “de-esterification by purified esterase (in words)” value is reported as “limited de-esterification” and the “esterase degradation (rate of enzymatic degradation)” value is given as 367 pmol/min/mg protein. The “protection / recovery of striatal TH-positive dopaminergic innervation (in words)” value in series [2] is listed as “more potent in this in vivo model of neurodegeneration”.

As for `CCC(C)(C)C(=O)C(=O)N1CCC[C@H]1C(=O)OCCCc1cccnc1` [Parent, 3-(3-Pyridyl)-1-propyl (2S)-1-(3,3-Dimethyl-1,2-dioxopentyl)-2-pyrrolidinecarboxylate, reference compound], the EC50 in series [3] amounted to 0.05 nM. In addition, the half-life in series [1] (mouse liver microsomes, 0.2 mg/mL protein, 37° C., 1 hour incubation, read-out: t1/2 (compound half-life in microsomal assay)) is 8.1 min. Moreover, in the series with rabbit liver esterase, the “de-esterification by purified esterase (in words)” value is recorded as “significant degradation” and the “esterase degradation (rate of enzymatic degradation)” value turned out to be 7521 pmol/min/mg protein.
